Experimental data reported in patent publication US11247965B2 (VenatoRx Pharmaceuticals, Inc., priority 2017, dated 2022).

Assays:
[1] = test system: HBV replication in HepAD38 cells; assay: Anti-HBV activity in HepAD38 cells, extracellular HBV DNA by QPCR; format: cell-based, HBV (genotype D, serotype ayw); settings: Hepatitis B virus, HePAD38, 168 h, read-out: Anti-HBV EC50, HepAD38 cells, extracellular HBV DNA by QPCR, 7 days of incubation
Method in brief: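 Seven-day compound exposure (30 μM down to 10 nM, half-log steps) after tetracycline withdrawal induced HBV replication in HepAD38 cells. Extracellular viral DNA measured by QPCR (copies/mL via standard curve), normalised to DMSO wells; EC50 from 4-parameter non-linear regression.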

[2] = In vitro cytotoxicity, MTT cell viability assay in HepG2 cells; format: cell-based; settings: human, Cytotoxicity CC50
Method in brief: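 Parental HepG2 cells in EMEM + 10% FBS were exposed to compounds (8 half-log dilutions, 30 μM to 1.0 nM) for 7 days at 37 °C, 5% CO2. MTT was then added for 3-4 h, formazan dissolved in DMSO and absorbance read at 492 nm; CC50 came from 4-parameter fits against vehicle controls.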

SMILES	EC50 [1] [µM]	CC50 at 7 days [2] [µM]
Cc1cc(NC(=O)c2ccc(F)c(C(F)(F)C(=O)N3CCC(O)(CO)CC3)c2)ccc1F [Example 75, 3-(1,1-difluoro-2-(4-hydroxy-4-(hydroxymethyl)piperidin-1-yl)-2-oxoethyl)-4-fluoro-N-(4-fluoro-3-methylphenyl)benzamide]	< 5	5 to 30
Cc1cc(NC(=O)c2ccc(F)c(C(F)(F)C(=O)N3CCc4cn[nH]c4C3)c2)ccc1F [Example 76, 3-(1,1-difluoro-2-oxo-2-(1,4,5,7-tetrahydro-6H-pyrazolo[3,4-c]pyridin-6-yl)ethyl)-4-fluoro-N-(4-fluoro-3-methylphenyl)benzamide]	< 5	5 to 30
Cc1cc(NC(=O)c2ccc(F)c(C(F)(F)C(=O)N3CCC(O)C(F)(F)C3)c2)ccc1F (stereo not drawn) [Example 77, 3-(2-(3,3-difluoro-4-hydroxypiperidin-1-yl)-1,1-difluoro-2-oxoethyl)-4-fluoro-N-(4-fluoro-3-methylphenyl)benzamide]	< 5	5 to 30
Cc1cc(NC(=O)c2ccc(F)c(C(F)(F)C(=O)N3C4CCC3CC(O)C4)c2)ccc1F [Example 78, 3-(1,1-difluoro-2-((1R,3r,5S)-3-hydroxy-8-azabicyclo[3.2.1]octan-8-yl)-2-oxoethyl)-4-fluoro-N-(4-fluoro-3-methylphenyl)benzamide]	< 5	5 to 30
Cc1cc(NC(=O)c2ccc(F)c(C(F)(F)C(=O)N[C@H]3CC[C@H](O)CC3)c2)ccc1F [Example 79, 3-(1,1-difluoro-2-(((1r,4r)-4-hydroxycyclohexyl)amino)-2-oxoethyl)-4-fluoro-N-(4-fluoro-3-methylphenyl)benzamide]	5 to 30	> 30
CC(C)n1cc(NC(=O)c2ccc(F)c(C(F)(F)C(=O)N3CCC(O)CC3)c2)cn1 [Example 80, 3-(1,1-difluoro-2-(4-hydroxypiperidin-1-yl)-2-oxoethyl)-4-fluoro-N-(1-isopropyl-1H-pyrazol-4-yl)benzamide]	> 30	> 30
Cc1cc(NC(=O)c2ccc(C(F)(F)C(=O)NC(C)(C)C)s2)ccc1F [Example 81, 5-(2-(tert-butylamino)-1,1-difluoro-2-oxoethyl)-N-(4-fluoro-3-methylphenyl)thiophene-2-carboxamide]	5 to 30	> 30
Cc1cc(NC(=O)c2ccc(C(F)(F)C(=O)NC(C)(C)CO)s2)ccc1F [Example 82, 5-(1,1-difluoro-2-((1-hydroxy-2-methylpropan-2-yl)amino)-2-oxoethyl)-N-(4-fluoro-3-methylphenyl)thiophene-2-carboxamide]	> 30	> 30
Cc1cc(NC(=O)c2ccc(F)c(C(F)(F)C(=O)N[C@H]3CCCC[C@@H]3O)c2)ccc1F [Example 83, 3-(1,1-difluoro-2-(((1S,2S)-2-hydroxycyclohexyl)amino)-2-oxoethyl)-4-fluoro-N-(4-fluoro-3-methylphenyl)benzamide]	5 to 30	> 30
Cc1cc(NC(=O)c2ccc(F)c(C(F)(F)C(=O)N[C@@H]3CCOC3=O)c2)ccc1F [Example 84, (R)-3-(1,1-difluoro-2-oxo-2-((2-oxotetrahydrofuran-3-yl)amino)ethyl)-4-fluoro-N-(4-fluoro-3-methylphenyl)benzamide]	> 30	> 30
O=C(Nc1ccc(F)c(Cl)c1)c1ccc(F)c(C(F)(F)C(=O)N2CCC(O)CC2)c1 [Example 85, N-(3-chloro-4-fluorophenyl)-3-(1,1-difluoro-2-(4-hydroxypiperidin-1-yl)-2-oxoethyl)-4-fluorobenzamide]	< 5	5 to 30
O=C(Nc1cc(F)c(F)c(F)c1)c1ccc(F)c(C(F)(F)C(=O)N2CCC(O)CC2)c1 [Example 86, 3-(1,1-difluoro-2-(4-hydroxypiperidin-1-yl)-2-oxoethyl)-4-fluoro-N-(3,4,5-trifluorophenyl)benzamide]	< 5	5 to 30
O=C(Nc1ccc(F)c(Br)c1)c1ccc(F)c(C(F)(F)C(=O)N2CCC(O)CC2)c1 [Example 87, N-(3-bromo-4-fluorophenyl)-3-(1,1-difluoro-2-(4-hydroxypiperidin-1-yl)-2-oxoethyl)-4-fluorobenzamide]	< 5	5 to 30
N#Cc1cc(NC(=O)c2ccc(F)c(C(F)(F)C(=O)N3CCC(O)CC3)c2)ccc1F [Example 88, N-(3-cyano-4-fluorophenyl)-3-(1,1-difluoro-2-(4-hydroxypiperidin-1-yl)-2-oxoethyl)-4-fluorobenzamide]	< 5	> 30
Cn1cc(NC(=O)c2ccc(F)c(C(F)(F)C(=O)N3CCC(O)CC3)c2)cn1 [Example 89, 3-(1,1-difluoro-2-(4-hydroxypiperidin-1-yl)-2-oxoethyl)-4-fluoro-N-(1-methyl-1H-pyrazol-4-yl)benzamide]	> 30	5 to 30
Cc1cc(NC(=O)c2cc(C(F)(F)C(=O)N3CCC(O)CC3)ccc2F)ccc1F [Example 90, 5-(1,1-difluoro-2-(4-hydroxypiperidin-1-yl)-2-oxoethyl)-2-fluoro-N-(4-fluoro-3-methylphenyl)benzamide]	< 5	5 to 30
COc1ccc(C(F)(F)C(=O)N2CCC(O)CC2)cc1C(=O)Nc1ccc(F)c(C)c1 [Example 91, 5-(1,1-difluoro-2-(4-hydroxypiperidin-1-yl)-2-oxoethyl)-N-(4-fluoro-3-methylphenyl)-2-methoxybenzamide]	> 30	> 30
Cc1cc(NC(=O)c2cccc(C(F)(F)C(=O)N3CCC(O)CC3)c2F)ccc1F [Example 92, 3-(1,1-difluoro-2-(4-hydroxypiperidin-1-yl)-2-oxoethyl)-2-fluoro-N-(4-fluoro-3-methylphenyl)benzamide]	< 5	5 to 30
Cc1cc(NC(=O)c2cc(F)cc(C(F)(F)C(=O)N3CCC(O)CC3)c2)ccc1F [Example 93, 3-(1,1-difluoro-2-(4-hydroxypiperidin-1-yl)-2-oxoethyl)-5-fluoro-N-(4-fluoro-3-methylphenyl)benzamide]	< 5	5 to 30
COc1ccc(C(=O)Nc2ccc(F)c(C)c2)cc1C(F)(F)C(=O)N1CCC(O)CC1 [Example 94, 3-(1,1-difluoro-2-(4-hydroxypiperidin-1-yl)-2-oxoethyl)-N-(4-fluoro-3-methylphenyl)-4-methoxybenzamide]	< 5	> 30
Cc1cc(NC(=O)c2cc(C(F)(F)C(=O)N3CCC(O)CC3)ccc2Cl)ccc1F [Example 95, 2-chloro-5-(1,1-difluoro-2-(4-hydroxypiperidin-1-yl)-2-oxoethyl)-N-(4-fluoro-3-methylphenyl)benzamide]	> 30	> 30
Cc1cc(NC(=O)c2ccn(C)c2C(F)(F)C(=O)N2CCC(O)CC2)ccc1F [Example 96, 2-(1,1-difluoro-2-(4-hydroxypiperidin-1-yl)-2-oxoethyl)-N-(4-fluoro-3-methylphenyl)-1-methyl-1H-pyrrole-3-carboxamide]	5 to 30	> 30
Cc1cc(NC(=O)c2cc(C(F)(F)C(=O)N3CCC(O)CC3)n(C)c2)ccc1F [Example 97, 5-(1,1-difluoro-2-(4-hydroxypiperidin-1-yl)-2-oxoethyl)-N-(4-fluoro-3-methylphenyl)-1-methyl-1H-pyrrole-3-carboxamide]	< 5	> 30
Cc1cc(NC(=O)c2cc(Br)c(C(F)(F)C(=O)N3CCC(O)CC3)n2C)ccc1F [Example 98, 4-bromo-5-(1,1-difluoro-2-(4-hydroxypiperidin-1-yl)-2-oxoethyl)-N-(4-fluoro-3-methylphenyl)-1-methyl-1H-pyrrole-2-carboxamide]	> 30	> 30
Cc1cc(NC(=O)c2ccc(C(F)(F)C(=O)N3CCC(O)CC3)n2C)ccc1F [Example 99, 5-(1,1-difluoro-2-(4-hydroxypiperidin-1-yl)-2-oxoethyl)-N-(4-fluoro-3-methylphenyl)-1-methyl-1H-pyrrole-2-carboxamide]	> 30	> 30
Cc1cc(NC(=O)c2cc(C(F)(F)C(=O)NC(C)(C)C)n(C)c2)ccc1F [Example 100, 5-(2-(tert-butylamino)-1,1-difluoro-2-oxoethyl)-N-(4-fluoro-3-methylphenyl)-1-methyl-1H-pyrrole-3-carboxamide]	< 5	> 30
Cc1cc(NC(=O)c2ccn(C)c2C(F)(F)C(=O)NC(C)(C)C)ccc1F [Example 101, 2-(2-(tert-butylamino)-1,1-difluoro-2-oxoethyl)-N-(4-fluoro-3-methylphenyl)-1-methyl-1H-pyrrole-3-carboxamide]	< 5	> 30
Cc1cc(NC(=O)c2cc(C(F)(F)C(=O)NC(C)C)n(C)c2)ccc1F [Example 102, 5-(1,1-difluoro-2-(isopropylamino)-2-oxoethyl)-N-(4-fluoro-3-methylphenyl)-1-methyl-1H-pyrrole-3-carboxamide]	< 5	> 30
CC[C@H](C)NC(=O)C(F)(F)c1cc(C(=O)Nc2ccc(F)c(C)c2)cn1C [Example 103, (S)-5-(2-(sec-butylamino)-1,1-difluoro-2-oxoethyl)-N-(4-fluoro-3-methylphenyl)-1-methyl-1H-pyrrole-3-carboxamide]	< 5	5 to 30
Cc1cc(NC(=O)c2cc(C(F)(F)C(=O)NC(C)(C)CO)n(C)c2)ccc1F [Example 104, 5-(1,1-difluoro-2-((1-hydroxy-2-methylpropan-2-yl)amino)-2-oxoethyl)-N-(4-fluoro-3-methylphenyl)-1-methyl-1H-pyrrole-3-carboxamide]	< 5	> 30
